In patent publication US12559492B2, “BRAF degraders” (C4 Therapeutics, Inc., priority 2020, dated 2026):

Target: BRAF^V600E protein (Homo sapiens, UniProt P15056, V600E)
Assay: HiBiT cellular BRAF V600E degradation assay
Format: cell-based
Settings: 24 h incubation; for DC50: A375.10 cells (HiBiT tag knocked in at N-terminal of BRAF V600E), concentration at which 50% of total cellular BRAF V600E is degraded; for Emax: A375.10 cells, Emax = amount of residual protein remaining in the cell after compound treatment, read-out: HiBit 24 h Emax

Chain of BRAF^V600E protein (P15056 whole entry V600E): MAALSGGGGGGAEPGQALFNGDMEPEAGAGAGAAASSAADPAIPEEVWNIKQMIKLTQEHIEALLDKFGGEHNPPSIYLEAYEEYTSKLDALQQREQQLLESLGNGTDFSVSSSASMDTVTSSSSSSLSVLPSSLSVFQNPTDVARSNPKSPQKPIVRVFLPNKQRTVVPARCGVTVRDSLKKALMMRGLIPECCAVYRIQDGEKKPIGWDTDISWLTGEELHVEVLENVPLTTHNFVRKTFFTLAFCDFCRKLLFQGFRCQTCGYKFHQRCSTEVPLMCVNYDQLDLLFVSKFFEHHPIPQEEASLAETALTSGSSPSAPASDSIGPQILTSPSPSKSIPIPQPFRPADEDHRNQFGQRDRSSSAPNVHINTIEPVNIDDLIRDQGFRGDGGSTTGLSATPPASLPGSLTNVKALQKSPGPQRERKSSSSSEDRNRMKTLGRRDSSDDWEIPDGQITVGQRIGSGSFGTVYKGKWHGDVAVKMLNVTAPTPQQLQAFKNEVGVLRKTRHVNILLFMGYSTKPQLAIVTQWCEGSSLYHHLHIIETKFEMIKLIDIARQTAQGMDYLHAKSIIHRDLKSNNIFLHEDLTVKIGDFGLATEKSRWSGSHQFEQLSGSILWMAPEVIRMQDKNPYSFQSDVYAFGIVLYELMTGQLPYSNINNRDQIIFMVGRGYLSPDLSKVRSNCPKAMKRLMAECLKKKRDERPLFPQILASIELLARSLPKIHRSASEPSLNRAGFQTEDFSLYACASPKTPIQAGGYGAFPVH

Row | DC50 [nM] | Emax [%] | SMILES
1 | 10.4 | 9.52 | CCN(C)S(=O)(=O)Nc1ccc(F)c(C(=O)c2c[nH]c3ncc(-c4ccc(C5CCN(C(=O)CN6CCC(c7ccc(NC8CCC(=O)NC8=O)cc7)CC6)CC5)cc4)cc23)c1F (centres unmarked) [Example A44, 5-[4-[1-[2-[4-[4-[(2,6-Dioxopiperidin-3-yl)amino]phenyl]piperidin-1-yl]acetyl]piperidin-4-yl]phenyl]-3-[3-[[ethyl(methyl)sulfamoyl]amino]-2,6-difluorobenzoyl]-1H-pyrrolo[2,3-b]pyridine]
2 | 65 | 21 | CCN(C)S(=O)(=O)Nc1ccc(F)c(C(=O)c2c[nH]c3ncc(-c4ccc(N5CCN(C(=O)CN6CCC(c7ccc(OC8CCC(=O)NC8=O)cn7)CC6)CC5)nc4)cc23)c1F (centres unmarked) [Example A45, 5-[6-[4-[2-[4-[5-(2,6-Dioxopiperidin-3-yl)oxypyridin-2-yl]piperidin-1-yl]acetyl]piperazin-1-yl]pyridin-3-yl]-3-[3-[[ethyl(methyl)sulfamoyl]amino]-2,6-difluorobenzoyl]-1H-pyrrolo[2,3-b]pyridine]
3 | 7.44 | 10.8 | CCN(C)S(=O)(=O)Nc1ccc(F)c(C(=O)c2c[nH]c3ncc(-c4cnc(C5CCN(C(=O)CN6CCC(c7ccc(NC8CCC(=O)NC8=O)cc7)CC6)CC5)nc4)cc23)c1F (centres unmarked) [Example A46, 5-[2-[1-[2-[4-[4-[(2,6-Dioxopiperidin-3-yl)amino]phenyl]piperidin-1-yl]acetyl]piperidin-4-yl]pyrimidin-5-yl]-3-[3-[[ethyl(methyl)sulfamoyl]amino]-2,6-difluorobenzoyl]-1H-pyrrolo[2,3-b]pyridine]
4 | 3.86 | 10.7 | CCN(C)S(=O)(=O)Nc1ccc(F)c(C(=O)c2c[nH]c3ncc(-c4ccc(N5CCN(C(=O)CN6CCC(c7ccc(NC89CC(C8)C(=O)NC9=O)cc7)CC6)CC5)nc4)cc23)c1F [Example A47, 5-[6-[4-[2-[4-[4-[(2,4-Dioxo-3-azabicyclo[3.1.1]heptan-1-yl)amino]phenyl]piperidin-1-yl]acetyl]piperazin-1-yl]pyridin-3-yl]-3-[3-[[ethyl(methyl)sulfamoyl]amino]-2,6-difluorobenzoyl]-1H-pyrrolo[2,3-b]pyridine]
5 | 5 | 12 | O=C1CCC(Nc2ccc(C3CCN(CC(=O)N4CCN(c5ccc(-c6cnc7[nH]cc(C(=O)c8c(F)ccc(NS(=O)(=O)N9CCCC9)c8F)c7c6)cc5)CC4)CC3)cc2)C(=O)N1 (centres unmarked) [Example A48, N-[3-[5-[4-[4-[2-[4-[4-[(2,6-Dioxopiperidin-3-yl)amino]phenyl]piperidin-1-yl]acetyl]piperazin-1-yl]phenyl]-1H-pyrrolo[2,3-b]pyridine-3-carbonyl]-2,4-difluorophenyl]pyrrolidine-1-sulfonamide]
6 | 17 | 11 | CCN(C)S(=O)(=O)Nc1ccc(F)c(C(=O)c2c[nH]c3ncc(-c4ccc(C5CCN(C(=O)CN6CCC(c7ccc(NC8CCC(=O)NC8=O)cc7)CC6)CC5)nc4)cc23)c1F (centres unmarked) [Example A49, 5-[6-[1-[2-[4-[4-[(2,6-Dioxopiperidin-3-yl)amino]phenyl]piperidin-1-yl]acetyl]piperidin-4-yl]pyridin-3-yl]-3-[3-[[ethyl(methyl)sulfamoyl]amino]-2,6-difluorobenzoyl]-1H-pyrrolo[2,3-b]pyridine]
7 | 15 | 12 | O=C1CCC(Oc2ccc(C3CCN(CC(=O)N4CCN(c5ccc(-c6cnc7[nH]cc(C(=O)c8c(F)ccc(NS(=O)(=O)N9CCCC9)c8F)c7c6)cc5)CC4)CC3)cc2)C(=O)N1 (centres unmarked) [Example A50, N-[3-[5-[4-[4-[2-[4-[4-(2,6-Dioxopiperidin-3-yl)oxyphenyl]piperidin-1-yl]acetyl]piperazin-1-yl]phenyl]-1H-pyrrolo[2,3-b]pyridine-3-carbonyl]-2,4-difluorophenyl]pyrrolidine-1-sulfonamide]
8 | 4 | 14 | O=C1CCC(Nc2ccc(N3CCN(CC(=O)N4CCN(c5ccc(-c6cnc7[nH]cc(C(=O)c8c(F)ccc(NS(=O)(=O)N9CCCC9)c8F)c7c6)cc5)CC4)CC3)cc2)C(=O)N1 (centres unmarked) [Example A51, N-[3-[5-[4-[4-[2-[4-[4-[(2,6-Dioxopiperidin-3-yl)amino]phenyl]piperazin-1-yl]acetyl]piperazin-1-yl]phenyl]-1H-pyrrolo[2,3-b]pyridine-3-carbonyl]-2,4-difluorophenyl]pyrrolidine-1-sulfonamide]
9 | 10 | 12 | O=C1CCC(Nc2ccc(C3CCN(CC(=O)N4CCN(c5ccc(-c6cnc7[nH]cc(C(=O)c8c(F)ccc(NS(=O)(=O)C9CCCC9)c8F)c7c6)cc5)CC4)CC3)cc2)C(=O)N1 (centres unmarked) [Example A52, N-[3-[5-[4-[4-[2-[4-[4-[(2,6-Dioxopiperidin-3-yl)amino]phenyl]piperidin-1-yl]acetyl]piperazin-1-yl]phenyl]-1H-pyrrolo[2,3-b]pyridine-3-carbonyl]-2,4-difluorophenyl]cyclopentanesulfonamide]
10 | 27 | 22 | O=C1CCC(Nc2ccc(C3CCN(C(=O)NC4CCN(Cc5ccc(-c6cnc7[nH]cc(C(=O)c8c(F)ccc(NS(=O)(=O)N9CCCC9)c8F)c7c6)cc5)CC4)CC3)cc2)C(=O)N1 (centres unmarked) [Example A53, N-[1-[[4-[3-[2,6-Difluoro-3-(pyrrolidin-1-ylsulfonylamino)benzoyl]-1H-pyrrolo[2,3-b]pyridin-5-yl]phenyl]methyl]piperidin-4-yl]-4-[4-[(2,6-dioxopiperidin-3-yl)amino]phenyl]piperidine-1-carboxamide;formic acid]
11 | 3.94 | 9.71 | CCN(C)S(=O)(=O)Nc1ccc(F)c(C(=O)c2c[nH]c3ncc(-c4cnc(N5CCN(C(=O)CN6CCC(c7ccc(NC8CCC(=O)NC8=O)cc7F)CC6)CC5)nc4)cc23)c1F (centres unmarked) [Example A54, 5-[2-[4-[2-[4-[4-[(2,6-Dioxopiperidin-3-yl)amino]-2-fluorophenyl]piperidin-1-yl]acetyl]piperazin-1-yl]pyrimidin-5-yl]-3-[3-[[ethyl(methyl)sulfamoyl]amino]-2,6-difluorobenzoyl]-1H-pyrrolo[2,3-b]pyridine]
12 | 97 | 26 | CCN(C)S(=O)(=O)Nc1ccc(F)c(C(=O)c2c[nH]c3ncc(-c4cnc(N5CCN(C(=O)C(C)(C)N6CCC(c7ccc(NC8CCC(=O)NC8=O)cc7)CC6)CC5)nc4)cc23)c1F (centres unmarked) [Example A55, 5-[2-[4-[2-[4-[4-[(2,6-Dioxopiperidin-3-yl)amino]phenyl]piperidin-1-yl]-2-methylpropanoyl]piperazin-1-yl]pyrimidin-5-yl]-3-[3-[[ethyl(methyl)sulfamoyl]amino]-2,6-difluorobenzoyl]-1H-pyrrolo[2,3-b]pyridine]
13 | 20 | 11 | CCN(C)S(=O)(=O)Nc1ccc(F)c(C(=O)c2c[nH]c3ncc(-c4ccc(N5CCC(NC(=O)CN6CCC(c7ccc(NC8CCC(=O)NC8=O)cn7)CC6)CC5)cc4)cc23)c1F (centres unmarked) [Example A56, 2-[4-[5-[(2,6-dioxopiperidin-3-yl)amino]pyridin-2-yl]piperidin-1-yl]-N-[1-[4-[3-[3-[[ethyl(methyl)sulfamoyl]amino]-2,6-difluorobenzoyl]-1H-pyrrolo[2,3-b]pyridin-5-yl]phenyl]piperidin-4-yl]acetamide; formic acid]
